The values below are quoted from earlier work in paper PMC6940698.

The nature of this data set: not told.

Molecules are shown by their SMILES.

`O=C(O)c1cc(S(=O)(=O)O)ccc1O`: the “log partition benzene / water” value is on record as 0.34 ratio, the “log partition toluene / water” value was 0.26 ratio and the “log partition xylene / water” value is reported as 0.23 ratio.
